Like-named read-outs stand apart in the source and are kept apart here.
What was measured:
[1] = molecular target: T1, TpMglB-2 (Tp0684), wild-type (Treponema pallidum, UniProt Q08255); experiment: Isothermal titration calorimetry (ITC) of sugars into wild-type TpMglB-2; format: binding; conditions: for binding heats in ITC control titrations: wild-type TpMglB-2, qualitative
T1 construct: the DNA fragment encoding amino acid residues 11–378 (cloned without the post-translationally modified N-terminal Cys); made in house; host or cells: E. coli BL21 AI (co-transformed with pGroESL)
T1 sequence (Q08255 36-403): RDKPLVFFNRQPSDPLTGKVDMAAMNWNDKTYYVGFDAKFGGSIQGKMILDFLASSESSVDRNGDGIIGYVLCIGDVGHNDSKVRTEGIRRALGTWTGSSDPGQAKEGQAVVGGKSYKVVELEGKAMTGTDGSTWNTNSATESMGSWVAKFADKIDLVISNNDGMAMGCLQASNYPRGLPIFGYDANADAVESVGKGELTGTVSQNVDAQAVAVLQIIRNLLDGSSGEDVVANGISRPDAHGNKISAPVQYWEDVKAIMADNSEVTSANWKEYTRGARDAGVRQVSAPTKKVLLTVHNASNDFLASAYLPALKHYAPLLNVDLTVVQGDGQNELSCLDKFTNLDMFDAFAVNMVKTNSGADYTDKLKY
Experimental: (§1) TpMglB-2 was dialyzed exhaustively against Assay Buffer (10 mM sodium phosphate, pH 7.4, 100 mM NaCl). The sugars to be titrated were dissolved in the same buffer. All titrations were carried out in an iTC200 calorimeter (Malvern, Malvern, UK). A typical titration scheme featured 19 or 20 2-μL injections of 500 μM of the monosaccharide into 50 μM protein in the ca. 200-μL stirred interaction cell. However, the concentrations were sometimes altered to sample a wider range of concentration space. Three titrations were performed per sugar, and the resulting thermograms were serially integrated using NITPIC v. 1.1.7 [54, 78]. All titrations for a given sugar were globally analyzed in ITCsy[55], and confidence intervals were obtained using the error-surface projection method. All ITC illustrations were rendered in GUSSI [79].

TpMglB-2 [2] = molecular target: T2, TpMglB-2 (Treponema pallidum, UniProt Q08255); experiment: Differential scanning fluorimetry (DSF) carbon-source screen; format: binding; conditions: for binding in the DSF assay: qualitative; for shift in Tm, app: 10 μM protein, BIOLOG compounds, vs water control
T2 construct: the DNA fragment encoding amino acid residues 11–378 (cloned without the post-translationally modified N-terminal Cys); made in house; host or cells: E. coli BL21 AI (co-transformed with pGroESL)
T2 sequence (Q08255 36-403): as above
Text: The unconventional structural organization and the altered Ca^2+-binding site of TpMglB-2 provoked a question: does such a structurally rearranged LBP function similarly to other LBPs? To address this question, we first examined ligand binding. In a previous study on TpMglB-2, we reported that the protein preferred D-glucose and D-galactose over a small number of other monsaccharide carbon sources. However, we wished to interrogate a larger panel of such sources to investigate whether another ligand would bind to the protein with even higher affinity. We thus employed differential scanning fluorimetry (DSF) as a means to probe for ligand binding. This method examines the apparent melting temperature (Tm, app) of the protein; the “apparent” nomenclature is added in recognition of the fact that the reversibility of the transition was not tested in these experiments. Presumably, in the presence of a specifically bound ligand, the protein’s structure will be stabilized, resulting in a higher Tm, app. We used this plate-based method to qualitatively assay for the binding of 190 carbon sources. Only D-glucose and D-galactose caused significant shifts (> 1.5° C) in Tm, app (Fig 5). Thus, these were the only candidate compounds that were selected for additional study.
The thermal stability of TpMglB-2 in the presence of various putative ligands was determined in a 96-well PCR-plate (Bio-Rad Laboratories, Inc., Hercules, CA). The assumption was that binding ligands would enhance the thermal stability of the protein. For carbon-source screening, Biolog's Phenotype MicroArray (PM) compounds supplied in 96-well microplates (BIOLOG, Inc., Hayward, CA) were dissolved in 50 μL of sterile water to obtain a final concentration of around 10–20 mM. Screenings were performed with plates PM1 and PM2A. Each plate contains 95 compounds and a blank (no ligand) control. The complete plate contents are available at the BIOLOG website (www.biolog.com).
Each 20 μL standard assay mixture in a 96-well PCR-plate contained 10 μM purified protein and SYPRO Orange (Life Technologies) at 5x concentration in a buffer containing 10 mM phosphate, 100 mM NaCl, pH 7.4. Two μL of the resuspended BIOLOG compounds were added to each well. The plate was sealed and placed in a BioRad CFX96 real-time PCR detector coupled to a C1000 thermal cycler (BioRad Laboratories, Inc., Hercules, CA), and the fluorescence of the dye was monitored as a function of temperature from 4° C to 95° C. Fluorescence readings were recorded every 0.5° C. The data were transformed to–dF/dT v. T curves, and the abscissas of the minima in these curves were defined as the apparent melting temperatures (Tm, app). Significant positive shifts in Tm, app were taken as positive results and were confirmed using ITC.

TpMglB-2 [3] = molecular target: T2, TpMglB-2
TpMglB-2 N19A = molecular target: T3, TpMglB-2 N19A (Treponema pallidum, UniProt Q08255, N44A); experiment: ITC of D-glucose into TpMglB-2 N19A variant; format: binding; parameters: key: NH: No observable heat of ligand binding
T3 construct: the DNA fragment encoding amino acid residues 11–378 (cloned without the post-translationally modified N-terminal Cys); made in house; host or cells: E. coli BL21 AI
T3 sequence (Q08255 36-403 N44A): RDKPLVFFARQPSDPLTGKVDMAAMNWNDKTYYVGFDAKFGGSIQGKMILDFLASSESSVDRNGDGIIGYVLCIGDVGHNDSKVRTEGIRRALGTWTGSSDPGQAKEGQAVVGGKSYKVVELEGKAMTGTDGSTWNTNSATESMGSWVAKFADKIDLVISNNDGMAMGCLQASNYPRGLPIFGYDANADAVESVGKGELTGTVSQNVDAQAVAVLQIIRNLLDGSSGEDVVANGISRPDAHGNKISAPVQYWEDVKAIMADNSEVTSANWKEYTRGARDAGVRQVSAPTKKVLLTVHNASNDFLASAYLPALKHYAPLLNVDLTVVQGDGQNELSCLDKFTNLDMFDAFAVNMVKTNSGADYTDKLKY
Experimental: (§2) For the construction of the recombinant TpMglB-2 variants, the N19A, W145A, D195A and F313A mutation was individually introduced into the plasmid carrying the wild-type tp0684 sequence using the QuikChange site-directed mutagenesis kit (Agilent Technologies, Santa Clara, CA). The mutation was confirmed by DNA sequencing. The mutant protein was expressed and purified as described above. Protein concentrations were determined in buffer A (20 mM Hepes, 0.1 M NaCl, pH 7.5, 2 mM n-Octyl-β-D-glucopyranoside) using spectrophotometry. Extinction coefficients were calculated using the Protparam tool of ExPASy (www.expasy.org).
as §1, with “All ITC illustrations were rendered in GUSSI [79].” left out

TpMglB-2 W145A = molecular target: T4, TpMglB-2 W145A (Treponema pallidum, UniProt Q08255, W170A); experiment: ITC of D-glucose into TpMglB-2 W145A variant; format: binding
T4 construct: the DNA fragment encoding amino acid residues 11–378 (cloned without the post-translationally modified N-terminal Cys); made in house; host or cells: E. coli BL21 AI
T4 sequence (Q08255 36-403 W170A): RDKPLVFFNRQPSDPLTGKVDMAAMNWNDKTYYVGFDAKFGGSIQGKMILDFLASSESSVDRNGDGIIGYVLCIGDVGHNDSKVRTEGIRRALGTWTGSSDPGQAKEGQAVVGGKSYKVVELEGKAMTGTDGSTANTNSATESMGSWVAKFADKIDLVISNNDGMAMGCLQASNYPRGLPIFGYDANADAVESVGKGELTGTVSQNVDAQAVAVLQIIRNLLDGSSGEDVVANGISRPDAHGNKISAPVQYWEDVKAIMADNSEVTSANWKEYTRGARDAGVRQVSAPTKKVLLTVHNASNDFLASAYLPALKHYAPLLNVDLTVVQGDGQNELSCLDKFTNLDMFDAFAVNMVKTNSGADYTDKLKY
Experimental: as §2
as §1, with “All ITC illustrations were rendered in GUSSI [79].” left out

TpMglB-2 D195A = molecular target: T5, TpMglB-2 D195A (Treponema pallidum, UniProt Q08255, D220A); experiment: ITC of D-glucose into TpMglB-2 D195A variant; format: binding; parameters: key: NH: No observable heat of ligand binding
T5 construct: the DNA fragment encoding amino acid residues 11–378 (cloned without the post-translationally modified N-terminal Cys); made in house; host or cells: E. coli BL21 AI
T5 sequence (Q08255 36-403 D220A): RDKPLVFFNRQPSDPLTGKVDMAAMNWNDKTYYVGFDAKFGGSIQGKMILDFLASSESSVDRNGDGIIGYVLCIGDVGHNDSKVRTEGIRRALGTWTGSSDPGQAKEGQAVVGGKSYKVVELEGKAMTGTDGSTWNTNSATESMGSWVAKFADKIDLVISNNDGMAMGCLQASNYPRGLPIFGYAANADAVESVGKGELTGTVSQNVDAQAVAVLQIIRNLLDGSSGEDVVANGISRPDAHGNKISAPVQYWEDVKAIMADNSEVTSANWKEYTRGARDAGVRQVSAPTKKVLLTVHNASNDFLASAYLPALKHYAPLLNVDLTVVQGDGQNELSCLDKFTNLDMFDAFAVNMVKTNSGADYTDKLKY
Experimental: as §2
as §1, with “All ITC illustrations were rendered in GUSSI [79].” left out

TpMglB-2 F313A = molecular target: T6, TpMglB-2 F313A (Treponema pallidum, UniProt Q08255, F338A); experiment: ITC of D-glucose into TpMglB-2 F313A variant; format: binding; parameters: key: NH: No observable heat of ligand binding
T6 construct: the DNA fragment encoding amino acid residues 11–378 (cloned without the post-translationally modified N-terminal Cys); made in house; host or cells: E. coli BL21 AI
T6 sequence (Q08255 36-403 F338A): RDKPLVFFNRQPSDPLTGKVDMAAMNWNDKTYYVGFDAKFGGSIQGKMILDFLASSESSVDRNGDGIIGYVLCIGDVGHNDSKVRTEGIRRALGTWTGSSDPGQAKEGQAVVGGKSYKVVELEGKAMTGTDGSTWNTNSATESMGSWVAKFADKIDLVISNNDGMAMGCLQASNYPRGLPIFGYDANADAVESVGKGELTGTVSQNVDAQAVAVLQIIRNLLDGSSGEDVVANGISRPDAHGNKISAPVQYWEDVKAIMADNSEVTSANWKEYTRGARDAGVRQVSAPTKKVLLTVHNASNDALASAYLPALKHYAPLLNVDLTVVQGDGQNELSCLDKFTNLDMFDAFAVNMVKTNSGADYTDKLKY
Experimental: as §2
as §1, with “All ITC illustrations were rendered in GUSSI [79].” left out

TpMglB-2 [4] = molecular target: T2, TpMglB-2; experiment: Sedimentation velocity analytical ultracentrifugation (conventional SV); conditions: 100 μM D-glucose, 20° C; 95% confidence interval in brackets; apo-TpMglB-2 3.212 S
Experimental: Our initial attempt to examine whether this small difference could be detected was conducted using conventional SV. In experiments carried out simultaneously, we sedimented apo-TpMglB-2 and also the protein in the presence of 100 μM D-glucose. By analyzing the data with a non-interacting discrete species model, we could perform a careful analysis using F-statistics that would establish realistic 95% confidence intervals (shown below in brackets) on the refined parameter s. For apo-TpMglB-2, the refined experimental s-value was 3.212 [3.204–3.219] S. The same value of the protein in the presence of D-glucose was 3.292 [3.288–3.297] S. We can estimate the statistical significance of this difference the F-statistic formalism. If we fix the s-value of the apo-protein to that of the liganded protein and repeat the analysis, we arrive at a χ^2 ratio between the two analyses of 1.86. […]
All AUC experiments were carried out at 20° C in a Beckman-Coulter Optima XL-I centrifuge (Beckman-Coulter Inc., Indianapolis, IN), and Assay Buffer was used in all cases. […] Centrifugation continued for about 16 h, and concentration-profile data were collected using both absorbance and interference optics. Data were initially analyzed using the c(s) method in SEDFIT [82, 83]. As warranted, data were also analyzed using a discrete-species model in SEDPHAT [62].

TpMglB-2 [5] = molecular target: T2, TpMglB-2; experiment: Difference sedimentation velocity; conditions: for Δs/s¯: 5 mg/mL TpMglB-2, 95% confidence interval in brackets
Experimental: Minute sedimentation-coefficient differences are readily detected using a method pioneered in H. Schachman’s lab called “difference sedimentation velocity” [64]. This method provides a direct, side-by-side comparison of the sedimentation velocity of two macromolecular solutes. In brief, two samples of 5 mg/mL TpMglB-2 were prepared. To one sample, a non-binding sugar, either D-mannose or D-ribose (these sugars evidenced no binding in neither the DSF nor ITC assays), was introduced, whereas an identical concentration of D-glucose was added to the other. The protein sample with the non-binding sugar was placed in the reference sector of a centrifugation centerpiece, and the sample sector of the same centerpiece was filled with the D-glucose-containing protein solution. Centrifugation was initiated, and Rayleigh laser interferometry was used to monitor the sedimentation. Because this mode of data collection reports on refractive-index differences between the two sectors, the difference between the sedimentation in the two sectors is recorded. This signal (for unequal solution-column heights) will appear roughly as a Gaussian-shaped curve inverted about the radial axis (Fig 8A). If the macromolecular solutes in each sector sediment at different rates, the absolute value of the area of (or, more specifically, the normalized first moment of) this curve will increase as sedimentation continues. This trend reports on the fractional sedimentation-coefficient difference between the solutes in the reference and sample sectors, termed Δs/s¯ , i.e. the change in s normalized by the mean s-value. […]
For difference SV studies, a slightly different protocol was followed. […] Sedimentation and sedimentation differences were monitored using the interference optics only; scans were obtained every 60 s for almost 17 h.
As presented by the data-acquisition software, interference data have the amount of fringe displacement, J, on the y-axis and the radius from the center of rotation on x-axis (r). In this case, of course, the difference in fringe displacement, ΔJ, was measured. […]

OC[C@H]1OC(O)[C@@H](O)[C@@H](O)[C@@H]1O (stereo partly drawn) [D-Mannose, reference compound]
binding heats in ITC control titrations [1]: failed to exhibit any binding heats | binding in the DSF assay (TpMglB-2 [2]): failed to bind

O=C[C@H](O)[C@@H](O)[C@@H](O)[C@H](O)CO [D-galactose]
KD for D-galactose relative to that of D-glucose ([1]; wild-type TpMglB-2): 30 fold | shift in Tm, app (TpMglB-2 [2]): > 1.5 °C | Kd (TpMglB-2 [3]; read-out: equilibrium dissociation constant; similar TpMglB-2 construct, 20 mM NaCl; cited from earlier work): 250 nM

O=C[C@H](O)[C@H](O)[C@H](O)CO [D-ribose, reference compound]
binding heats in ITC control titrations [1]: failed to exhibit any binding heats | binding in the DSF assay (TpMglB-2 [2]): failed to bind

OC[C@H]1OC(O)[C@H](O)[C@@H](O)[C@@H]1O (stereo partly drawn) [D-glucose]
Kd ([1]; wild-type TpMglB-2, 10 mM sodium phosphate pH 7.4, 100 mM NaCl, 68.3% confidence intervals in brackets): 1100 nM | KD (TpMglB-2 N19A): NH^b | KD for glucose binding of W145A relative to the wild-type protein (TpMglB-2 W145A): tenfold higher | Kd (TpMglB-2 W145A; W145A variant, 68.3% confidence intervals in brackets): 12700 nM | KD (TpMglB-2 D195A): NH | KD (TpMglB-2 F313A): NH | shift in Tm, app (TpMglB-2 [2]): > 1.5 °C | refined experimental s-value of TpMglB-2 in the presence of the sugar (TpMglB-2 [4]): 3.292 [3.288–3.297] S | Δs/s¯ (TpMglB-2 [5]; D-glucose in sample sector vs D-mannose in reference sector): about 0.0177 [0.0163, 0.0191] | Δs/s¯ (TpMglB-2 [5]; D-glucose in sample sector vs D-ribose in reference sector): 0.0180 [0.0163, 0.0197] | observed change in s (Δs/s¯ multiplied by the observed s, 3.2 S) (TpMglB-2 [5]; D-glucose vs non-binding sugar): approximately 0.06 S | Kd (TpMglB-2 [3]; similar TpMglB-2 construct, 20 mM NaCl; read-out: equilibrium dissociation constant; cited from earlier work): 150 nM

Source: PMC4990184, “The Tp0684 (MglB-2) Lipoprotein of Treponema pallidum: A Glucose-Binding Protein with Divergent Topology” (PLoS ONE, 2016)
